# Experimental data published in PubChem BioAssay (NCI).
#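 Grown in 96-well plates, cells were treated for 48 hours with each compound at five concentrations. Insufficient inhibition: endpoint recorded as highest concentration tested. GI50: concentration for 50% inhibition of growth. TGI denotes the concentration required for complete inhibition of growth.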
# Tests used:
# Assay in all cases: growth of human tumour cells (NCI), 48 h
# NCI-H522 lung = system: NCI-H522 lung
# NCI-H460 lung = system: NCI-H460 lung
# HL-60(TB) leukemia = system: HL-60(TB) leukemia
# CCRF-CEM leukemia = system: CCRF-CEM leukemia
# SK-MEL-28 melanoma = system: SK-MEL-28 melanoma
# A498 renal = system: A498 renal
# NCI-H226 lung = system: NCI-H226 lung
# HCT-116 colon = system: HCT-116 colon
# SNB-19 CNS = system: SNB-19 CNS
# SN12C renal = system: SN12C renal
smiles,measurement,setting,value
CCOC(=O)c1ccc(NC(NC(=O)CC)(C(F)(F)F)C(F)(F)F)cc1,TGI,NCI-H522 lung,> 100 µM
same,TGI,NCI-H460 lung,> 100 µM
same,TGI,HL-60(TB) leukemia,> 100 µM
same,TGI,CCRF-CEM leukemia,> 100 µM
same,TGI,SK-MEL-28 melanoma,> 100 µM
same,TGI,A498 renal,> 100 µM
same,TGI,NCI-H226 lung,> 100 µM
same,TGI,HCT-116 colon,> 100 µM
same,TGI,SNB-19 CNS,> 100 µM
Clc1ccc(-c2nn3c(C45CC6CC(CC(C6)C4)C5)nnc3s2)cc1,TGI,NCI-H522 lung,> 100 µM
same,TGI,NCI-H460 lung,> 100 µM
same,TGI,HL-60(TB) leukemia,> 100 µM
same,TGI,CCRF-CEM leukemia,> 100 µM
same,TGI,SK-MEL-28 melanoma,> 100 µM
same,TGI,SN12C renal,> 100 µM
same,TGI,A498 renal,> 100 µM
same,TGI,NCI-H226 lung,> 100 µM
same,TGI,HCT-116 colon,> 100 µM
same,TGI,SNB-19 CNS,> 100 µM
CN1CCN(c2c(O)c3c(c(O)c2Cl)C(=O)C=CC3=O)CC1,TGI,NCI-H522 lung,0.765 µM
same,TGI,NCI-H460 lung,3.77 µM
same,TGI,HL-60(TB) leukemia,0.332 µM
same,TGI,CCRF-CEM leukemia,0.41 µM
same,TGI,SK-MEL-28 melanoma,2.51 µM
same,TGI,SN12C renal,2.1 µM
same,TGI,A498 renal,4.54 µM
same,TGI,NCI-H226 lung,4.08 µM
same,TGI,HCT-116 colon,0.51 µM
same,TGI,SNB-19 CNS,6.32 µM
COC1=C(OC)C(=O)C(Cc2c(Cl)nc3n2CCS3)=C(C)C1=O,TGI,NCI-H522 lung,25.4 µM
same,TGI,NCI-H460 lung,30.8 µM
same,TGI,HL-60(TB) leukemia,6.4 µM
same,TGI,CCRF-CEM leukemia,8.98 µM
same,TGI,SK-MEL-28 melanoma,27.2 µM
same,TGI,SN12C renal,31.3 µM
same,TGI,A498 renal,35.6 µM
same,TGI,HCT-116 colon,25.3 µM
same,TGI,SNB-19 CNS,33.1 µM
COc1cc([C@@H]2c3cc4c(cc3[C@@H](Nc3ccc(NC(=O)c5cc(NC(=O)c6cc([N+](=O)[O-])cn6C)cn5C)cc3)[C@H]3COC(=O)[C@H]23)OCO4)cc(OC)c1O,TGI,NCI-H522 lung,> 100 µM
same,TGI,NCI-H460 lung,13.2 µM
same,TGI,HL-60(TB) leukemia,11.3 µM
same,TGI,CCRF-CEM leukemia,> 37.8 µM
same,TGI,SN12C renal,26.5 µM
same,TGI,A498 renal,> 52.9 µM
same,TGI,NCI-H226 lung,> 44.4 µM
same,TGI,HCT-116 colon,33.3 µM
same,TGI,SNB-19 CNS,> 55.1 µM
Cc1nc(N)nc(N)c1N1CCN(Cc2ccccc2)CC1,TGI,NCI-H522 lung,> 93.5 µM
same,TGI,NCI-H460 lung,> 100 µM
same,TGI,HL-60(TB) leukemia,> 100 µM
same,TGI,CCRF-CEM leukemia,> 100 µM
same,TGI,SK-MEL-28 melanoma,> 100 µM
same,TGI,SN12C renal,> 100 µM
same,TGI,A498 renal,> 100 µM
same,TGI,NCI-H226 lung,> 100 µM
same,TGI,HCT-116 colon,> 100 µM
same,TGI,SNB-19 CNS,> 100 µM
Cc1nc2ccccc2cc1C[N+]12CN3CN(CN(C3)C1)C2,TGI,NCI-H522 lung,38.2 µM
same,TGI,NCI-H460 lung,45.1 µM
same,TGI,CCRF-CEM leukemia,23.7 µM
same,TGI,SK-MEL-28 melanoma,45.1 µM
same,TGI,SN12C renal,48.1 µM
same,TGI,A498 renal,47.8 µM
same,TGI,NCI-H226 lung,52.8 µM
same,TGI,HCT-116 colon,33.2 µM
same,TGI,SNB-19 CNS,56.5 µM
N#CI1OC(C(F)(F)F)(C(F)(F)F)c2ccccc21,TGI,NCI-H522 lung,27.3 µM
same,TGI,NCI-H460 lung,72.5 µM
same,TGI,HL-60(TB) leukemia,> 100 µM
same,TGI,CCRF-CEM leukemia,> 100 µM
same,TGI,SK-MEL-28 melanoma,37.4 µM
same,TGI,SN12C renal,68 µM
same,TGI,A498 renal,> 100 µM
same,TGI,NCI-H226 lung,49 µM
same,TGI,HCT-116 colon,30.4 µM
Nc1ccc(-c2nc3cc(F)ccc3s2)cc1,TGI,NCI-H522 lung,> 100 µM
same,TGI,NCI-H460 lung,> 100 µM
same,TGI,HL-60(TB) leukemia,> 100 µM
same,TGI,CCRF-CEM leukemia,> 100 µM
same,TGI,SK-MEL-28 melanoma,> 100 µM
same,TGI,SN12C renal,> 100 µM
same,TGI,A498 renal,> 100 µM
same,TGI,NCI-H226 lung,> 100 µM
same,TGI,HCT-116 colon,> 100 µM
same,TGI,SNB-19 CNS,> 100 µM
COC1=CCC2=C(CCN(C(=O)C3CCC3)C2Cc2ccc(OC)c(O)c2)C1 (stereo unspecified),TGI,NCI-H522 lung,42 µM
same,TGI,NCI-H460 lung,31.1 µM
same,TGI,HL-60(TB) leukemia,51.5 µM
same,TGI,CCRF-CEM leukemia,> 100 µM
same,TGI,SK-MEL-28 melanoma,> 100 µM
same,TGI,SN12C renal,54.3 µM
same,TGI,A498 renal,84.5 µM
same,TGI,NCI-H226 lung,> 100 µM
same,TGI,HCT-116 colon,48.6 µM
same,TGI,SNB-19 CNS,> 100 µM
COC1CCC(n2c([C@@H]3CCCC(=O)N3c3ccc(F)c(F)c3)nc3cc(-c4c(C)noc4C)ccc32)CC1 (stereo partly specified),GI50,NCI-H522 lung,2.93 µM
same,TGI,NCI-H522 lung,19.8 µM
same,GI50,NCI-H460 lung,26.3 µM
same,TGI,NCI-H460 lung,> 100 µM
same,GI50,HL-60(TB) leukemia,0.851 µM
same,TGI,HL-60(TB) leukemia,36.4 µM
same,GI50,CCRF-CEM leukemia,4.66 µM
same,TGI,CCRF-CEM leukemia,57.7 µM
same,GI50,SK-MEL-28 melanoma,11.8 µM
same,TGI,SK-MEL-28 melanoma,28.1 µM
same,GI50,SN12C renal,10.3 µM
same,TGI,SN12C renal,29.6 µM
same,GI50,A498 renal,5.99 µM
same,TGI,A498 renal,20 µM
same,GI50,NCI-H226 lung,4.31 µM
same,TGI,NCI-H226 lung,19.7 µM
same,GI50,HCT-116 colon,10 µM
same,TGI,HCT-116 colon,22.4 µM
same,GI50,SNB-19 CNS,9.31 µM
same,TGI,SNB-19 CNS,> 100 µM
Cc1ccc(Nc2nc(NS(=O)(=O)c3cc(C)c(Cl)cc3S)n[nH]2)cc1,TGI,NCI-H522 lung,> 100 µM
same,TGI,NCI-H460 lung,> 100 µM
same,TGI,HL-60(TB) leukemia,> 100 µM
same,TGI,CCRF-CEM leukemia,> 100 µM
same,TGI,SK-MEL-28 melanoma,> 100 µM
same,TGI,SN12C renal,> 100 µM
same,TGI,A498 renal,> 100 µM
same,TGI,NCI-H226 lung,> 100 µM
same,TGI,HCT-116 colon,> 100 µM
same,TGI,SNB-19 CNS,> 100 µM
CC(C)(C)OC(=O)N1C/C=C\C(=O)C2(OCCO2)c2ccccc21,TGI,NCI-H522 lung,78.8 µM
same,TGI,NCI-H460 lung,50.5 µM
same,TGI,CCRF-CEM leukemia,57 µM
same,TGI,SK-MEL-28 melanoma,49.5 µM
same,TGI,SN12C renal,88.9 µM
same,TGI,A498 renal,> 100 µM
same,TGI,NCI-H226 lung,38.9 µM
same,TGI,HCT-116 colon,34.9 µM
same,TGI,SNB-19 CNS,> 100 µM
O=c1cc2cc(O)[nH]c(=O)c2c(O)[nH]1,TGI,NCI-H522 lung,> 100 µM
same,TGI,NCI-H460 lung,> 100 µM
same,TGI,HL-60(TB) leukemia,> 100 µM
same,TGI,CCRF-CEM leukemia,> 100 µM
same,TGI,SN12C renal,> 100 µM
same,TGI,A498 renal,> 100 µM
same,TGI,NCI-H226 lung,> 100 µM
same,TGI,HCT-116 colon,> 100 µM
same,TGI,SNB-19 CNS,> 100 µM
CC(C)(Oc1ccc(C(=O)c2ccc(Cl)cc2)cc1Cl)C(=O)N1CCN(c2ccccc2)CC1,TGI,NCI-H522 lung,> 100 µM
same,TGI,NCI-H460 lung,> 100 µM
same,TGI,HL-60(TB) leukemia,> 100 µM
same,TGI,CCRF-CEM leukemia,> 100 µM
same,TGI,SK-MEL-28 melanoma,> 100 µM
same,TGI,A498 renal,> 100 µM
same,TGI,HCT-116 colon,> 100 µM
same,TGI,SNB-19 CNS,> 100 µM
